From patent publication US20250276953A1, “SMALL MOLECULE SIRTUIN INHIBITORS AND USES THEREOF” (The Regents of the University of Michigan, priority 2022, published 2025)

How the values were obtained:
[1] = molecular target: T1, SIRT5 (Homo sapiens (Human), UniProt Q9NXA8); experiment: SIRT5 IC50 (Table I); format: biochemical
[2] = tested on: Ewing sarcoma cell line A4573; experiment: Growth inhibition of Ewing sarcoma cell line A4573; format: cell-based
[3] = tested on: Ewing sarcoma cell line A673; experiment: Growth inhibition of Ewing sarcoma cell line A673; format: cell-based
[4] = molecular target: T1, SIRT5; experiment: Degradation of SIRT5 protein; format: cell-based

T1 sequence (Q9NXA8 37-310): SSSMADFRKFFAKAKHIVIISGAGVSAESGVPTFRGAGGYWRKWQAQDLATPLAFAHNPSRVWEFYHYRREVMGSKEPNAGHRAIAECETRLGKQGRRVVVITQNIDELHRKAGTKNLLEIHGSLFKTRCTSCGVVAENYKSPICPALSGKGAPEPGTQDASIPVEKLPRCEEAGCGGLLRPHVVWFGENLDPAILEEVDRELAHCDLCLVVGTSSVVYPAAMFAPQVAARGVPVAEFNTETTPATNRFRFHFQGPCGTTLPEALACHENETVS

SMILES	IC50 [1] [µM]	other results
CCOC(=O)c1ccc(Nc2nc(-c3ccc(NC(C)=O)cc3)cs2)cc1O [Compound 1-2, Ethyl 4-((4-(4-acetamidophenyl)thiazol-2-yl)amino)-2-hydroxybenzoate]	–	growth of Ewing sarcoma cells [2]: inhibited growth; growth of Ewing sarcoma cells [3]: inhibited growth
CCOC(=O)c1ccc(Nc2nc(-c3ccc(NC(=O)CCCCNC(=O)COc4cccc5c4C(=O)N(C4CCC(=O)NC4=O)C5=O)cc3)cs2)cc1O (stereo not shown) [Compound 1-3, ethyl 4-((4-(4-(5-(2-((2-(2,6-dioxopiperidin-3-yl)-1,3-dioxoisoindolin-4-yl)oxy)acetamido)pentanamido)phenyl)thiazol-2-yl)amino)-2-hydroxybenzoate]	–	growth of Ewing sarcoma cells [2]: inhibited growth; degradation of protein SIRT5 [4]: degraded; growth of Ewing sarcoma cells [3]: inhibited growth
Cc1cccc(-c2csc(NC(=S)Nc3ccc(C(=O)O)c(O)c3)n2)c1 [Compound 1-11, 2-hydroxy-4-(3-(4-(m-tolyl)thiazol-2-yl)thioureido)benzoic acid]	27.7 ± 1.02	–
Cc1ccccc1-c1csc(NC(=S)Nc2ccc(C(=O)O)c(O)c2)n1 [Compound 1-12, 2-hydroxy-4-(3-(4-(o-tolyl)thiazol-2-yl)thioureido)benzoic acid]	34 ± 2.18	–
O=C(O)c1ccc(NC(=S)Nc2nc(-c3cccc(F)c3)cs2)cc1O [Compound 1-14, 4-(3-(4-(3-fluorophenyl)thiazol-2-yl)thioureido)-2-hydroxybenzoic acid]	18.3 ± 0.95	–
O=C(O)c1ccc(NC(=S)Nc2nc(-c3ccccc3F)cs2)cc1O [Compound 1-15, 4-(3-(4-(2-fluorophenyl)thiazol-2-yl)thioureido)-2-hydroxybenzoic acid]	26.2 ± 2.54	–
O=C(O)c1ccc(NC(=S)Nc2nc(-c3cccc(C(F)(F)F)c3)cs2)cc1O [Compound 1-17, 2-hydroxy-4-(3-(4-(3-(trifluoromethyl)phenyl)thiazol-2-yl)thioureido)benzoic acid]	24.3 ± 2.54	–
COc1cccc(-c2csc(NC(=S)Nc3ccc(C(=O)O)c(O)c3)n2)c1 [Compound 1-19, 2-hydroxy-4-(3-(4-(3-methoxyphenyl)thiazol-2-yl)thioureido)benzoic acid]	41.6 ± 3.79	–
O=C(O)c1ccc(NC(=S)Nc2nc(-c3cccc(O)c3)cs2)cc1O [Compound 1-21, 2-hydroxy-4-(3-(4-(3-hydroxyphenyl)thiazol-2-yl)thioureido)benzoic acid]	32.8 ± 3.87	–
CC(=O)Nc1ccccc1-c1csc(NC(=S)Nc2ccc(C(=O)O)c(O)c2)n1 [Compound 1-25, 4-(3-(4-(2-acetamidophenyl)thiazol-2-yl)thioureido)-2-hydroxybenzoic acid]	55.6 ± 5.49	–
CNS(=O)(=O)c1cccc(-c2csc(NC(=S)Nc3ccc(C(=O)O)c(O)c3)n2)c1 [Compound 1-29, 2-hydroxy-4-(3-(4-(3-(N-methylsulfamoyl)phenyl)thiazol-2-yl)thioureido)benzoic acid]	26.1 ± 1.91	–
O=C(O)c1ccc(NC(=S)Nc2nc(-c3ccc(F)c(F)c3)cs2)cc1O [Compound 1-30, 4-(3-(4-(3,4-difluorophenyl)thiazol-2-yl)thioureido)-2-hydroxybenzoic acid]	16.1 ± 0.73	–
O=C(O)c1ccc(NC(=S)Nc2nc(-c3ccc(F)cc3F)cs2)cc1O [Compound 1-31, 4-(3-(4-(2,4-difluorophenyl)thiazol-2-yl)thioureido)-2-hydroxybenzoic acid]	19.3 ± 0.93	–
N#Cc1ccc(-c2csc(NC(=S)Nc3ccc(C(=O)O)c(O)c3)n2)cc1F [Compound 1-32, 4-(3-(4-(4-cyano-3-fluorophenyl)thiazol-2-yl)thioureido)-2-hydroxybenzoic acid]	12.8 ± 0.48	–
N#Cc1ccc(-c2csc(NC(=S)Nc3ccc(C(=O)O)c(O)c3)n2)c(F)c1 [Compound 1-33, 4-(3-(4-(4-cyano-2-fluorophenyl)thiazol-2-yl)thioureido)-2-hydroxybenzoic acid]	14.8 ± 0.81	–
O=C(O)c1ccc(NC(=S)Nc2nc(-c3ccc([N+](=O)[O-])cc3F)cs2)cc1O [Compound 1-34, 4-(3-(4-(2-fluoro-4-nitrophenyl)thiazol-2-yl)thioureido)-2-hydroxybenzoic acid]	23.8 ± 2.71	–
O=C(O)c1ccc(NC(=S)Nc2nc(-c3ccc([N+](=O)[O-])c(F)c3)cs2)cc1O [Compound 1-35, 4-(3-(4-(3-fluoro-4-nitrophenyl)thiazol-2-yl)thioureido)-2-hydroxybenzoic acid]	14.9 ± 1.35	–
O=C(O)c1ccc(NC(=S)Nc2nc(-c3ccc(F)c([N+](=O)[O-])c3)cs2)cc1O [Compound 1-36, 4-(3-(4-(4-fluoro-3-nitrophenyl)thiazol-2-yl)thioureido)-2-hydroxybenzoic acid]	11.6 ± 0.74	–
O=C(O)c1ccc(NC(=S)Nc2nc(-c3ccc(F)c(S(=O)(=O)NC4CCCC4)c3)cs2)cc1O [Compound 1-37, 4-(3-(4-(3-(N-cyclopentylsulfamoyl)-4-fluorophenyl)thiazol-2-yl)thioureido)-2-hydroxybenzoic acid]	24.9 ± 0.54	–
O=C(O)c1ccc(NC(=S)Nc2nc(-c3ccc(F)c(S(=O)(=O)NCc4ccccc4)c3)cs2)cc1O [Compound 1-38, 4-(3-(4-(3-(N-benzylsulfamoyl)-4-fluorophenyl)thiazol-2-yl)thioureido)-2-hydroxybenzoic acid]	8.22 ± 1.3	–
O=C(O)c1ccc(NC(=S)Nc2nc(-c3ccc([N+](=O)[O-])c(S(=O)(=O)NCc4ccccc4)c3)cs2)cc1O [Compound 1-39, 4-(3-(4-(3-(N-benzylsulfamoyl)-4-nitrophenyl)thiazol-2-yl)thioureido)-2-hydroxybenzoic acid]	2.5 ± 0.21	–

Second part, led by results:

IC50 [1] [µM]	SMILES	other results
26.4 ± 0.83	CC(=O)Nc1ccc(-c2csc(Nc3ccc(C(=O)O)c(O)c3)n2)cc1 [Compound 1-1, 4-((4-(4-acetamidophenyl)thiazol-2-yl)amino)-2-hydroxybenzoic acid]	–
12.4 ± 0.58	CC(=O)Nc1ccc(-c2csc(NC(=S)Nc3ccc(C(=O)O)c(O)c3)n2)cc1 [Compound 1-5, 4-(3-(4-(4-acetamidophenyl)thiazol-2-yl)thioureido)-2-hydroxybenzoic acid]	–
101 ± 8.48	CC(=O)Nc1ccc(-c2csc(NC(=S)Nc3ccc(C(=O)O)cc3)n2)cc1 [Compound 1-7, 4-(3-(4-(4-acetamidophenyl)thiazol-2-yl)thioureido)benzoic acid]	–
55.9 ± 5.42	CC(=O)Nc1ccc(-c2csc(NC(=S)Nc3ccc(O)c(C(=O)O)c3)n2)cc1 [Compound 1-8, 5-(3-(4-(4-acetamidophenyl)thiazol-2-yl)thioureido)-2-hydroxybenzoic acid]	–
50.7 ± 5.64	CC(=O)Nc1ccc(-c2csc(NC(=S)Nc3ccc(C(=O)O)cc3O)n2)cc1 [Compound 1-9, 4-(3-(4-(4-acetamidophenyl)thiazol-2-yl)thioureido)-3-hydroxybenzoic acid]	–
23.4 ± 0.92	Cc1ccc(-c2csc(NC(=S)Nc3ccc(C(=O)O)c(O)c3)n2)cc1 [Compound 1-10, 2-hydroxy-4-(3-(4-(p-tolyl)thiazol-2-yl)thioureido)benzoic acid]	–
17.3 ± 0.28	O=C(O)c1ccc(NC(=S)Nc2nc(-c3ccc(F)cc3)cs2)cc1O [Compound 1-13, 4-(3-(4-(4-fluorophenyl)thiazol-2-yl)thioureido)-2-hydroxybenzoic acid]	–
26.8 ± 1.42	O=C(O)c1ccc(NC(=S)Nc2nc(-c3ccc(C(F)(F)F)cc3)cs2)cc1O [Compound 1-16, 2-hydroxy-4-(3-(4-(4-(trifluoromethyl)phenyl)thiazol-2-yl)thioureido)benzoic acid]	–
29.2 ± 2.88	COc1ccc(-c2csc(NC(=S)Nc3ccc(C(=O)O)c(O)c3)n2)cc1 [Compound 1-18, 2-hydroxy-4-(3-(4-(4-methoxyphenyl)thiazol-2-yl)thioureido)benzoic acid]	–
42.5 ± 3.83	O=C(O)c1ccc(NC(=S)Nc2nc(-c3ccc(O)cc3)cs2)cc1O [Compound 1-20, 2-hydroxy-4-(3-(4-(4-hydroxyphenyl)thiazol-2-yl)thioureido)benzoic acid]	–
11.4 ± 0.5	N#Cc1ccc(-c2csc(NC(=S)Nc3ccc(C(=O)O)c(O)c3)n2)cc1 [Compound 1-22, 4-(3-(4-(4-cyanophenyl)thiazol-2-yl)thioureido)-2-hydroxybenzoic acid]	–
4.3 ± 0.3	O=C(O)c1ccc(NC(=S)Nc2nc(-c3ccc([N+](=O)[O-])cc3)cs2)cc1O [Compound 1-23, 2-hydroxy-4-(3-(4-(4-nitrophenyl)thiazol-2-yl)thioureido)benzoic acid]	–
35.6 ± 1.3	CC(=O)Nc1cccc(-c2csc(NC(=S)Nc3ccc(C(=O)O)c(O)c3)n2)c1 [Compound 1-24, 4-(3-(4-(3-acetamidophenyl)thiazol-2-yl)thioureido)-2-hydroxybenzoic acid]	–
18.6 ± 0.23	O=C(O)c1ccc(NC(=S)Nc2nc(-c3ccc(Br)cc3)cs2)cc1O [Compound 1-26, 4-(3-(4-(4-bromophenyl)thiazol-2-yl)thioureido)-2-hydroxybenzoic acid]	–
18.4 ± 0.28	O=C(O)c1ccc(NC(=S)Nc2nc(-c3ccc(Cl)cc3)cs2)cc1O [Compound 1-27, 4-(3-(4-(4-chlorophenyl)thiazol-2-yl)thioureido)-2-hydroxybenzoic acid]	–
38.8 ± 3.13	CNS(=O)(=O)c1ccc(-c2csc(NC(=S)Nc3ccc(C(=O)O)c(O)c3)n2)cc1 [Compound 1-28, 2-hydroxy-4-(3-(4-(4-(N-methylsulfamoyl)phenyl)thiazol-2-yl)thioureido)benzoic acid]	–
